From US10829499B2, “Tetracyclic heterocycle compounds useful as HIV integrase inhibitors” (MERCK SHARP & DOHME CORP., priority 2016, dated 2020)
Like-named read-outs stand apart in the source and are kept apart here.

System: HIV-1 (NL4-3 strain)
Assay: Assay for Inhibition of HIV Replication (kinetic assay, MT4-gag-GFP reporter cell line; VIKING)
Assay type: cell-based
Summary of the method: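 MT4-gag-GFP cells infected with HIV-1 NL4-3 at low MOI for 24 h were seeded with compound (0.4% DMSO) in medium with 0%, 10% or 100% normal human serum. GFP-positive cells were counted at 24 and 48 h, and R0 was the 48 h/24 h ratio. Inhibition was scaled to DMSO and triple-drug controls, and IC50 came from 4-parameter fits.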

[1] = Human immunodeficiency virus 1, NL43, MT4-GFP cells infected with HIV-1 NL4-3, 100% normal human serum (NHS), read-out: VIKING IP50 (nM) with 100% NHS
[2] = MT4-GFP cells infected with HIV-1 NL4-3, 0% normal human serum (NHS), read-out: VIKING IP50 (nM) with 0% NHS
[3] = Human immunodeficiency virus 1, NL43, MT4-GFP cells infected with HIV-1 NL4-3, 0% normal human serum (NHS), read-out: VIKING IP50 (nM) with 0% NHS
[4] = MT4-GFP cells infected with HIV-1 NL4-3, 100% normal human serum (NHS), read-out: VIKING IP50 (nM) with 100% NHS

**Q.** `O=C(NCc1ccc(F)c(Cl)c1)c1c2n3c(c(O)c1=O)C(=O)N1CCOC1C3CC2` (single isomer, unassigned) [Compound 24] was tested. Which IC50 [1] did it give?
**A.** 8000 nM

**Q.** What about the IC50 [2] of the same compound?
**A.** 0.622 nM

**Q.** For `C[C@H]1CNC2C3CCc4c(C(=O)NCc5ccc(F)cc5F)c(=O)c(O)c(n43)C(=O)N21` (stereo partly shown) [Compound 99], which IC50 [3] is on record?
**A.** 2.28 nM

**Q.** And the IC50 [4]?
**A.** 19.2 nM

**Q.** `CCCN1C[C@H](C)N2C(=O)c3c(O)c(=O)c(C(=O)NCc4cccc(Cl)c4F)c4n3C(CC4)C12` (stereo partly shown) [Compound 113] was tested. Which IC50 [3] did it give?
**A.** 3.58 nM

**Q.** What about the IC50 [1] of the same compound?
**A.** 291 nM

**Q.** Which results are given for `C[C@H]1CN2C(=O)c3c(O)c(=O)c(C(=O)NCc4ccc(F)cc4F)c4n3C(CC4)C2N1` (stereo partly shown) [Compound 96]?
**A.** IC50 [2]: 2.04 nM; IC50 [4]: 13.8 nM

**Q.** How did the IC50 [2] turn out when `CCNC1CC2C3OCCCN3C(=O)c3c(O)c(=O)c(C(=O)NCc4cccc(Cl)c4F)c1n32` (stereo not shown) [Compound 194] was run?
**A.** 15.7 nM

**Q.** What about the IC50 [4] of the same compound?
**A.** 35.1 nM

**Q.** What does the source list for `COC1CC2C3N(C)CCN3C(=O)c3c(O)c(=O)c(C(=O)NCc4ccc(F)cc4F)c1n32` (stereo not shown) [Compound 125]?
**A.** IC50 [2]: 10.3 nM; IC50 [4]: 57.7 nM

**Q.** How did the IC50 [2] turn out when `O=C(NCc1cccc(Cl)c1F)c1c2n3c(c(O)c1=O)C(=O)N1CCOC1C3CC2` (single isomer, unassigned) [Compound 4] was run?
**A.** 0.439 nM

**Q.** And the IC50 [4]?
**A.** 93.6 nM

**Q.** How did the IC50 [2] turn out when `O=C(NCc1cccc(Cl)c1F)c1c2n3c(c(O)c1=O)C(=O)N1CCCCOC1C3CC2` (single isomer, unassigned) [Compound 66] was run?
**A.** 1.48 nM

**Q.** And the IC50 [4]?
**A.** 834 nM

**Q.** Which results are given for `O=C(NCc1ccc(F)cc1F)c1c2n3c(c(O)c1=O)C(=O)N1CCCCOC1C3CC2` (single isomer, unassigned) [Compound 71]?
**A.** IC50 [2]: 1.25 nM; IC50 [4]: 30.7 nM

**Q.** Which IC50 [2] does the source give for `COC1CC2C3OCCN3C(=O)c3c(O)c(=O)c(C(=O)NCc4ccc(F)cc4F)c1n32` (single isomer, unassigned) [Compound 79] here?
**A.** 1.79 nM

**Q.** What about the IC50 [4] of the same compound?
**A.** 135 nM

**Q.** For `COC1CC2C3N(C)CCN3C(=O)c3c(O)c(=O)c(C(=O)NCc4ccc(F)cc4F)c1n32` (stereo not shown) [Compound 127], which IC50 [2] is on record?
**A.** 1.2 nM

**Q.** And the IC50 [4]?
**A.** 11.7 nM

**Q.** For `O=C(NCc1ccc(F)cc1)c1c2n3c(c(O)c1=O)C(=O)N1C4CCC(C4)OC1C3CC2` (stereo not shown) [Compound 162], which IC50 [2] is on record?
**A.** 3.9 nM

**Q.** And the IC50 [4]?
**A.** 50.4 nM

**Q.** How did the IC50 [2] turn out when `CCNC1CC2C3OCCCN3C(=O)c3c(O)c(=O)c(C(=O)NCc4cccc(F)c4F)c1n32` (stereo not shown) [Compound 192] was run?
**A.** 8.76 nM

**Q.** And the IC50 [4]?
**A.** 92.3 nM

**Q.** How did the IC50 [2] turn out when `O=C(NCc1c(F)cccc1F)c1c2n3c(c(O)c1=O)C(=O)N1CCOC1C3CC2` (single isomer, unassigned) [Compound 14] was run?
**A.** 0.827 nM

**Q.** What about the IC50 [4] of the same compound?
**A.** 194 nM

**Q.** `O=C(NCc1ccc(F)cc1)c1c2n3c(c(O)c1=O)C(=O)N1CCCOC1C3CC2` (single isomer, unassigned) [Compound 53] was tested. Which IC50 [2] did it give?
**A.** 0.963 nM

**Q.** And the IC50 [4]?
**A.** 393 nM

**Q.** Which IC50 [2] does the source give for `C[C@H]1CN(C)C2C3CCc4c(C(=O)NCc5cccc(Cl)c5F)c(=O)c(O)c(n43)C(=O)N21` (stereo partly shown) [Compound 110] here?
**A.** 0.733 nM

**Q.** What about the IC50 [4] of the same compound?
**A.** 67.8 nM

**Q.** Which results are given for `CCNC1C[C@H]2[C@H]3OC4CCC(C4)N3C(=O)c3c(O)c(=O)c(C(=O)NCc4ccc(F)cc4F)c1n32` (stereo partly shown) [Compound 176]?
**A.** IC50 [3]: 16.8 nM; IC50 [1]: 129 nM

**Q.** What does the source list for `CCN1C[C@H](C)N2C(=O)c3c(O)c(=O)c(C(=O)NCc4cccc(Cl)c4F)c4n3C(CC4)C12` (stereo partly shown) [Compound 111]?
**A.** IC50 [3]: 1.19 nM; IC50 [4]: 260 nM

**Q.** `CCNC1CC2C3OCCCN3C(=O)c3c(O)c(=O)c(C(=O)NCc4ccc(F)cc4F)c1n32` (stereo not shown) [Compound 204] was tested. Which IC50 [2] did it give?
**A.** 15.7 nM

**Q.** What about the IC50 [4] of the same compound?
**A.** 4830 nM

**Q.** For `CN1CCCN2C(=O)c3c(O)c(=O)c(C(=O)NCc4ccc(F)cc4F)c4n3C(CC4)C12` (stereo not shown) [Compound 80], which IC50 [3] is on record?
**A.** 0.662 nM

**Q.** What about the IC50 [1] of the same compound?
**A.** 13.8 nM

**Q.** What does the source list for `C[C@H]1COC2C3CCc4c(C(=O)NCc5ccc(F)cc5F)c(=O)c(O)c(n43)C(=O)N21` (single isomer, unassigned) [Compound 28]?
**A.** IC50 [2]: 0.401 nM; IC50 [4]: 257 nM

**Q.** What does the source list for `O=C(NCc1c(F)cc(F)cc1F)c1c2n3c(c(O)c1=O)C(=O)N1CCOC1C3CC2` (single isomer, unassigned) [Compound 21]?
**A.** IC50 [2]: 0.605 nM; IC50 [4]: 158 nM

**Q.** With `O=C(NCc1cccc(Cl)c1F)c1c2n3c(c(O)c1=O)C(=O)N1CCCCOC1C3CC2` (single isomer, unassigned) [Compound 65] as the compound, how does the IC50 [2] read?
**A.** 0.939 nM

**Q.** What about the IC50 [4] of the same compound?
**A.** 6680 nM

**Q.** What does the source list for `C[C@H]1CN2C(=O)c3c(O)c(=O)c(C(=O)NCc4cccc(Cl)c4F)c4n3C(CC4)C2O1` (stereo partly shown) [Compound 42]?
**A.** IC50 [3]: 1.38 nM; IC50 [1]: 1570 nM

**Q.** What does the source list for `C[C@H]1CN2C(=O)c3c(O)c(=O)c(C(=O)NCc4cccc(Cl)c4F)c4n3C(CC4)C2N1C` (stereo partly shown) [Compound 103]?
**A.** IC50 [2]: 1.45 nM; IC50 [4]: 15.4 nM

**Q.** `C[C@H]1CNC2C3CCc4c(-c5nnc(Cc6ccc(F)cc6F)s5)c(=O)c(O)c(n43)C(=O)N21` (stereo partly shown) [Compound 128] was tested. Which IC50 [1] did it give?
**A.** 361 nM

**Q.** What about the IC50 [2] of the same compound?
**A.** 6.69 nM

**Q.** Which results are given for `O=C(NCc1cccc(Cl)c1F)c1c2n3c(c(O)c1=O)C(=O)N1C4CCC(C4)OC1C3CC2` (stereo not shown) [Compound 154]?
**A.** IC50 [2]: 4.14 nM; IC50 [4]: 79.2 nM

**Q.** Which IC50 [3] does the source give for `CC12OCCCN1C(=O)c1c(O)c(=O)c(C(=O)NCc3ccc(F)cc3F)c3n1C2CC3` (stereo not shown) [Compound 133] here?
**A.** 0.93 nM

**Q.** What about the IC50 [4] of the same compound?
**A.** 617 nM

**Q.** `O=C(NCc1ccc(F)cc1F)c1c2n3c(c(O)c1=O)C(=O)N1CCCCOC1C3CC2` (single isomer, unassigned) [Compound 69] was tested. Which IC50 [3] did it give?
**A.** 1.36 nM

**Q.** What about the IC50 [4] of the same compound?
**A.** 349 nM

**Q.** For `O=C(NCc1c(F)cc(F)cc1F)c1c2n3c(c(O)c1=O)C(=O)N1CCOC1C3CC2` (single isomer, unassigned) [Compound 18], which IC50 [3] is on record?
**A.** 0.483 nM

**Q.** What about the IC50 [1] of the same compound?
**A.** 8000 nM

**Q.** `C[C@H]1CN2C(=O)c3c(O)c(=O)c(-c4nnc(Cc5ccc(F)cc5F)s4)c4n3C(CC4)C2N1` (stereo partly shown) [Compound 131] was tested. Which IC50 [2] did it give?
**A.** 2.33 nM

**Q.** And the IC50 [4]?
**A.** 36.1 nM

**Q.** For `COC1CC2C3OCCN3C(=O)c3c(O)c(=O)c(C(=O)NCc4ccc(F)cc4F)c1n32` (single isomer, unassigned) [Compound 75], which IC50 [2] is on record?
**A.** 4.99 nM

**Q.** What about the IC50 [4] of the same compound?
**A.** 6180 nM

**Q.** With `CCNC1CC2C3OCCCN3C(=O)c3c(O)c(=O)c(C(=O)NCc4cccc(F)c4F)c1n32` (stereo not shown) [Compound 190] as the compound, how does the IC50 [2] read?
**A.** 5.26 nM

**Q.** What about the IC50 [4] of the same compound?
**A.** 66.4 nM

**Q.** For `O=C(NCc1ccc(F)cc1F)c1c2n3c(c(O)c1=O)C(=O)N1CCOC1C3CC2` (single isomer, unassigned) [Compound 6], which IC50 [2] is on record?
**A.** 0.825 nM

**Q.** And the IC50 [4]?
**A.** 7910 nM

**Q.** With `O=C(NCc1ccc(F)cc1F)c1c2n3c(c(O)c1=O)C(=O)N1CCCOC1C3CC2` (single isomer, unassigned) [Compound 56] as the compound, how does the IC50 [2] read?
**A.** 0.701 nM

**Q.** And the IC50 [4]?
**A.** 1800 nM

**Q.** For `CCNC1CC2C3OCCCN3C(=O)c3c(O)c(=O)c(C(=O)NCc4cccc(Cl)c4F)c1n32` (stereo not shown) [Compound 196], which IC50 [2] is on record?
**A.** 15.3 nM

**Q.** And the IC50 [4]?
**A.** 883 nM

**Q.** With `C[C@@H]1COC2C3CCc4c(C(=O)NCc5cccc(Cl)c5F)c(=O)c(O)c(n43)C(=O)N21` (stereo partly shown) [Compound 35] as the compound, how does the IC50 [3] read?
**A.** 0.733 nM

**Q.** And the IC50 [1]?
**A.** 88.7 nM

**Q.** How did the IC50 [2] turn out when `O=C(NCc1ccc(F)cc1F)c1c2n3c(c(O)c1=O)C(=O)N1CCOC1C3CC2` (single isomer, unassigned) [Compound 8] was run?
**A.** 1 nM

**Q.** What about the IC50 [4] of the same compound?
**A.** 245 nM

**Q.** Which results are given for `CCNC1CC2C3OCCCN3C(=O)c3c(O)c(=O)c(C(=O)NCc4ccc(F)cc4F)c1n32` (stereo not shown) [Compound 203]?
**A.** IC50 [2]: 6.47 nM; IC50 [4]: 25.8 nM

**Q.** How did the IC50 [3] turn out when `C[C@@H]1COC2C3CCc4c(C(=O)NCc5cccc(Cl)c5F)c(=O)c(O)c(n43)C(=O)N21` (single isomer, unassigned) [Compound 36] was run?
**A.** 0.826 nM

**Q.** And the IC50 [1]?
**A.** 1060 nM

**Q.** Which results are given for `COC1CC2C3N(C)CCN3C(=O)c3c(O)c(=O)c(C(=O)NCc4ccc(F)cc4F)c1n32` (stereo not shown) [Compound 124]?
**A.** IC50 [2]: 7.41 nM; IC50 [4]: 28 nM
